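How tested: cells in 96-well plates exposed to compound for 48 hours at five concentrations. The concentration for full growth arrest is given as TGI.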
Columns and labels:
Test in all cases: growth of human tumour cells (NCI), 48 h
786-0 renal = system: 786-0 renal
A498 renal = system: A498 renal
A549 NSCLC = system: A549 NSCLC
ACHN renal = system: ACHN renal
CAKI-1 renal = system: CAKI-1 renal
CCRF-CEM leukemia = system: CCRF-CEM leukemia
COLO 205 colon = system: COLO 205 colon
DU-145 prostate = system: DU-145 prostate
EKVX NSCLC = system: EKVX NSCLC
HCC-2998 colon = system: HCC-2998 colon
HCT-116 colon = system: HCT-116 colon
HCT-15 colon = system: HCT-15 colon
HL-60(TB) leukemia = system: HL-60(TB) leukemia
HOP-62 NSCLC = system: HOP-62 NSCLC
HOP-92 NSCLC = system: HOP-92 NSCLC
HS 578T breast = system: HS 578T breast
HT29 colon = system: HT29 colon
IGROV1 ovarian = system: IGROV1 ovarian
K-562 leukemia = system: K-562 leukemia
KM12 colon = system: KM12 colon
LOX IMVI melanoma = system: LOX IMVI melanoma
M14 melanoma = system: M14 melanoma
MALME-3M melanoma = system: MALME-3M melanoma
MCF7 breast = system: MCF7 breast
MDA-MB-231 breast = system: MDA-MB-231 breast
MDA-MB-435 = system: MDA-MB-435
MDA-N = system: MDA-N
MOLT-4 leukemia = system: MOLT-4 leukemia
NCI-H226 lung = system: NCI-H226 lung
NCI-H23 lung = system: NCI-H23 lung
NCI-H460 lung = system: NCI-H460 lung
NCI-H522 lung = system: NCI-H522 lung
NCI/ADR-RES ovarian = system: NCI/ADR-RES ovarian
OVCAR-3 ovarian = system: OVCAR-3 ovarian
OVCAR-4 ovarian = system: OVCAR-4 ovarian
OVCAR-5 ovarian = system: OVCAR-5 ovarian
OVCAR-8 ovarian = system: OVCAR-8 ovarian
PC-3 prostate = system: PC-3 prostate
RPMI-8226 leukemia = system: RPMI-8226 leukemia
RXF 393 renal = system: RXF 393 renal
SF-268 CNS = system: SF-268 CNS
SF-295 CNS = system: SF-295 CNS
SF-539 CNS = system: SF-539 CNS
SK-MEL-2 melanoma = system: SK-MEL-2 melanoma
SK-MEL-28 melanoma = system: SK-MEL-28 melanoma
SK-MEL-5 melanoma = system: SK-MEL-5 melanoma
SK-OV-3 ovarian = system: SK-OV-3 ovarian
SN12C renal = system: SN12C renal
SNB-19 CNS = system: SNB-19 CNS
SNB-75 CNS = system: SNB-75 CNS
SW-620 colon = system: SW-620 colon
T-47D breast = system: T-47D breast
TK-10 renal = system: TK-10 renal
U251 CNS = system: U251 CNS
UACC-257 melanoma = system: UACC-257 melanoma
UO-31 renal = system: UO-31 renal
SR leukemia = system: SR leukemia
UACC-62 melanoma = system: UACC-62 melanoma

CC(=O)Nc1cc(C(=O)Nc2cc(C(=O)Nc3cc(C(=O)Nc4cc(C(=O)Nc5cc(C(=O)NCCC(=O)NCCCN(C)C)n(C)c5)n(C)c4)n(C)c3)n(C)c2)n(C)c1
TGI (786-0 renal): > 100000 nM
TGI (A498 renal): > 100 µM
TGI (A549 NSCLC): > 100 µM
TGI (ACHN renal): > 100 µM
TGI (CAKI-1 renal): 44.6 µM
TGI (CCRF-CEM leukemia): 73.9 µM
TGI (COLO 205 colon): > 100000 nM
TGI (DU-145 prostate): > 100 µM
TGI (EKVX NSCLC): > 100 µM
TGI (HCC-2998 colon): > 100 µM
TGI (HCT-116 colon): > 100 µM
TGI (HCT-15 colon): > 100 µM
TGI (HL-60(TB) leukemia): > 100 µM
TGI (HOP-62 NSCLC): > 100 µM
TGI (HOP-92 NSCLC): 75 µM
TGI (HS 578T breast): > 100 µM
TGI (HT29 colon): > 100 µM
TGI (IGROV1 ovarian): > 100000 nM
TGI (K-562 leukemia): > 100 µM
TGI (KM12 colon): > 100 µM
TGI (LOX IMVI melanoma): > 100 µM
TGI (M14 melanoma): > 100 µM
TGI (MALME-3M melanoma): > 100 µM
TGI (MCF7 breast): > 100 µM
TGI (MDA-MB-231 breast): > 100000 nM
TGI (MDA-MB-435): > 100 µM
TGI (MDA-N): > 100 µM
TGI (MOLT-4 leukemia): > 100 µM
TGI (NCI-H226 lung): > 100 µM
TGI (NCI-H23 lung): > 100000 nM
TGI (NCI-H460 lung): > 100 µM
TGI (NCI-H522 lung): 55.6 µM
TGI (NCI/ADR-RES ovarian): > 100 µM
TGI (OVCAR-3 ovarian): > 100000 nM
TGI (OVCAR-4 ovarian): > 100 µM
TGI (OVCAR-5 ovarian): > 100 µM
TGI (OVCAR-8 ovarian): > 100 µM
TGI (PC-3 prostate): > 100 µM
TGI (RPMI-8226 leukemia): > 100000 nM
TGI (RXF 393 renal): > 100000 nM
TGI (SF-268 CNS): > 100000 nM
TGI (SF-295 CNS): > 100 µM
TGI (SF-539 CNS): > 100000 nM
TGI (SK-MEL-2 melanoma): > 100 µM
TGI (SK-MEL-28 melanoma): > 100000 nM
TGI (SK-MEL-5 melanoma): > 100000 nM
TGI (SK-OV-3 ovarian): > 100 µM
TGI (SN12C renal): > 100 µM
TGI (SNB-19 CNS): > 100 µM
TGI (SNB-75 CNS): > 100 µM
TGI (SW-620 colon): > 100 µM
TGI (T-47D breast): 72.2 µM
TGI (TK-10 renal): > 100 µM
TGI (U251 CNS): > 100 µM
TGI (UACC-257 melanoma): > 100 µM
TGI (UO-31 renal): > 100 µM

CC12OC(=O)[C@@]3(O)CCC4C(C[C@H]5O[C@]56CC=CC(=O)[C@]46C)C45OC[C@H]6C(=O)O[C@@H]1C[C@@]6(C)[C@H](C4=O)C23O5 (stereo partly specified)
TGI (786-0 renal): 2250 nM
TGI (A549 NSCLC): 13.7 µM
TGI (ACHN renal): 8.45 µM
TGI (CAKI-1 renal): 7.53 µM
TGI (CCRF-CEM leukemia): 1.45 µM
TGI (COLO 205 colon): 1930 nM
TGI (DU-145 prostate): 7.77 µM
TGI (EKVX NSCLC): 16.6 µM
TGI (HCC-2998 colon): 10.5 µM
TGI (HCT-116 colon): 4.97 µM
TGI (HCT-15 colon): 4.43 µM
TGI (HOP-62 NSCLC): 10.4 µM
TGI (HOP-92 NSCLC): 5.67 µM
TGI (HS 578T breast): 68.9 µM
TGI (HT29 colon): 8.99 µM
TGI (IGROV1 ovarian): 2580 nM
TGI (K-562 leukemia): > 100 µM
TGI (KM12 colon): 3.97 µM
TGI (LOX IMVI melanoma): 6.92 µM
TGI (M14 melanoma): 4.32 µM
TGI (MALME-3M melanoma): 5.72 µM
TGI (MCF7 breast): 3.3 µM
TGI (MDA-MB-231 breast): 2580 nM
TGI (MDA-MB-435): 5.2 µM
TGI (MDA-N): 26.1 µM
TGI (MOLT-4 leukemia): 21.4 µM
TGI (NCI-H226 lung): 6.98 µM
TGI (NCI-H23 lung): 2180 nM
TGI (NCI-H460 lung): 8.69 µM
TGI (NCI-H522 lung): 1.77 µM
TGI (NCI/ADR-RES ovarian): > 100 µM
TGI (OVCAR-3 ovarian): 2770 nM
TGI (OVCAR-4 ovarian): 8.27 µM
TGI (OVCAR-5 ovarian): 10.7 µM
TGI (OVCAR-8 ovarian): 12.6 µM
TGI (PC-3 prostate): 12.9 µM
TGI (RPMI-8226 leukemia): 2470 nM
TGI (RXF 393 renal): 2430 nM
TGI (SF-268 CNS): 1910 nM
TGI (SF-295 CNS): 16.2 µM
TGI (SF-539 CNS): 923 nM
TGI (SK-MEL-2 melanoma): 9.38 µM
TGI (SK-MEL-28 melanoma): 2060 nM
TGI (SK-MEL-5 melanoma): 2860 nM
TGI (SK-OV-3 ovarian): 18.6 µM
TGI (SN12C renal): 5.39 µM
TGI (SNB-19 CNS): 11.8 µM
TGI (SNB-75 CNS): 20.7 µM
TGI (SR leukemia): 2460 nM
TGI (SW-620 colon): 4.87 µM
TGI (T-47D breast): 5.27 µM
TGI (TK-10 renal): 3.97 µM
TGI (U251 CNS): 5.77 µM
TGI (UACC-257 melanoma): 4.98 µM
TGI (UACC-62 melanoma): 3.46 µM

From PubChem BioAssay (NCI)
